The experiment addresses BRG1 (Homo sapiens, UniProt P51532). Kind of experiment: biochemical. Type of experiment: binding. Particulars: BRG1 HTRF IC50 (µM). The text has this: IC50 measurements for inhibitors using BRG1 TR-FRET Binding Assay
(In TR-FRET formats the signal depends on donor and acceptor labels being close together.)

Chain of BRG1 (P51532 1448-1575): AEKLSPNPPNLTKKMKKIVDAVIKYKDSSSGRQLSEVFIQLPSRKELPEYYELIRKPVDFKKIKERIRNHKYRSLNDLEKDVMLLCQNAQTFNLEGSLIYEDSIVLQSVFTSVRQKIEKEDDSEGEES

Broadly, the IC50 is the point on the concentration scale where inhibition reaches its midpoint. A high value points to weaker potency. The compound `CC(C)[C@H](N)C(=O)N1CCN(c2cc(-c3ccccc3O)nnc2N)C[C@@H]1C` [Example 158, 2-Amino-1-((R)-4-(3-amino-6-(2-hydroxyphenyl)pvridazin-4-yl)-2-methylpiperazin-1-yl)-3-methylbutan-1-one] showed an IC50 of 0.113 µM. The same measure for `CS(=O)(=O)N1C2CCC1CN(c1cc(-c3ccccc3O)nnc1N)C2` [Example 67, 2-(6-amino-5-(8-(methylsulfonyl)-3,8-diazabicyclo[3.2.1]octan-3-yl)pyridazin-3-yl)phenol]: 0.0294 µM; for `Nc1nnc(-c2ccccc2O)cc1OC1CCN(c2ccccc2)C1` (centres unmarked) [Example 184, 2-(6-amino-5-((1-phenylpyrrolidin-3-yl)oxy)pyridazin-3-yl)phenol]: 0.192 µM; for `CC(=O)N1CCCC(Oc2cc(-c3ccccc3O)nnc2N)C1` (centres unmarked) [Example 247, 1-(3-((3-amino-6-(2-hydroxyphenyl)pyridazin-4-yl)oxy)piperidin-1-yl)ethanone]: 0.137 µM. The figure for `Nc1nnc(-c2ccccc2O)cc1C1CCN(S(=O)(=O)c2ccccc2)CC1` [Example 224, 2-(6-amino-5-(1-(phenylsulfonyl)piperidin-4-yl)pyridazin-3-yl)phenol] is 0.0602 µM; for `CN1CCOC2(CCN(c3cc(-c4ccccc4O)nnc3N)CC2)C1` [Example 25, 2-(6-amino-5-(4-methyl-1-oxa-4,9-diazaspiro[5.5]undecan-9-yl)pyridazin-3-yl)phenol] it is 0.0176 µM; for `Nc1nnc(-c2ccccc2O)cc1N1CCS(=O)(=O)CC1` [Example 46, 4-(3-amino-6-(2-hydroxyphenyl)pyridazin-4-yl)thiomorpholine 1,1-dioxide] it is 0.414 µM.

The compound `Cc1ccc(S(=O)(=O)N2CCC(c3cc(-c4ccccc4O)nnc3N)CC2)cc1` [Example 219, 2-(6-amino-5-(1-tosylpiperidin-4-yl)pyridazin-3-yl)phenol] registered an IC50 of 0.36 µM. `C[C@H]1CN(c2cc(-c3ccccc3O)nnc2N)CCN1C(=O)C(C)(C)O` [Example 146, (S)-1-(4-(3-amino-6-(2-hydroxyphenyl)pyridazin-4-yl)-2-methylpiperazin-1-yl)-2-hydroxy-2-methylpropan-1-one]: it took 0.0458 µM to reach half-maximal inhibition (IC50). The same measure for `Nc1nnc(-c2ccccc2O)cc1N1CCN(Cc2ccccc2)C(=O)C1` [Example 14, 4-(3-amino-6-(2-hydroxyphenyl)pyridazin-4-yl)-1-benzylpiperazin-2-one]: 0.0735 µM; for `Cn1ncc2c(CN3CCN(c4cc(-c5ccccc5O)nnc4N)CC3)cccc21` [Example 103, 2-[6-amino-5-[4-[(1-methylindazol-4-yl)methyl]piperazin-1-yl]pyridazin-3-yl]phenol]: 0.0289 µM; for `CC(C)(C)OC(=O)N1CCC(c2cc(-c3ccccc3O)nnc2N)C1` (centres unmarked) [Example 212, tert-butyl 3-(3-amino-6-(2-hydroxyphenyl)pyridazin-4-yl)pyrrolidine-1-carboxylate]: 0.0694 µM.

As to `Cn1ncc2cc(CN3CCN(c4cc(-c5ccccc5O)nnc4N)CC3)ccc21` [Example 105, 2-[6-amino-5-[4-[(1-methylindazol-5-yl)methyl]piperazin-1-yl]pyridazin-3-yl]phenol], it took 0.0279 µM to reach half-maximal inhibition (IC50). Against the preceding compound, the IC50 is about 2.5-fold lower.

Turning to `Nc1nnc(-c2ccccc2O)cc1OC1CCCN(c2ccccc2)C1` (centres unmarked) [Example 183, 2-(6-amino-5-((1-phenylpiperidin-3-yl)oxy)pyridazin-3-yl)phenol], inhibition was half-maximal at 0.0172 µM (IC50). For `Nc1nnc(-c2ccccc2O)cc1N1CC2CCC(C1)N2c1cncnc1` [Example 43, 2-(6-amino-5-(8-(pyrimidin-5-yl)-3,8-diazabicyclo[3.2.1]octan-3-yl)pyridazin-3-yl)phenol], half-maximal inhibition (IC50) was put at 0.0193 µM. The same measure for `CC(=O)N1[C@@H](C)CN(c2cc(-c3ccccc3O)nnc2N)C[C@@H]1C` [Example 127, 1-((2S,6S)-4-(3-amino-6-(2-hydroxyphenyl)pyridazin-4-yl)-2,6-dimethylpiperazin-1-yl)ethan-1-one]: 0.369 µM. Turning to `Nc1nnc(-c2ccccc2O)cc1N1CCc2[nH]ncc2C1` [Example 52, 2-(6-amino-5-(1,4,6,7-tetrahydro-5H-pyrazolo[4,3-c]pyridin-5-yl)pyridazin-3-yl)phenol], the IC50 worked out at 0.128 µM. The same measure for `Nc1nnc(-c2ccccc2O)cc1N1CCN(c2ccccc2)CC1` [Example 13, 2-(6-amino-5-(4-phenylpiperazin-1-yl)pyridazin-3-yl)phenol]: 0.0321 µM; for `CN1CCC(c2cc(-c3ccccc3O)nnc2N)CC1` [Example 211, 2-(6-amino-5-(1-methylpiperidin-4-yl)pyridazin-3-yl)phenol]: 0.183 µM; for `COC1(Cc2ccccc2)CCN(c2cc(-c3ccccc3O)nnc2N)C1` (centres unmarked) [Example 40, 2-(6-amino-5-(3-benzyl-3-methoxypyrrolidin-1-yl)pyridazin-3-yl)phenol]: 0.0794 µM. The same measure for `CC(C)n1cc(CN2CCN(c3cc(-c4ccccc4O)nnc3N)CC2)cn1` [Example 94, 2-[6-amino-5-[4-[(1-isopropylpyrazol-4-yl)methyl]piperazin-1-yl]pyridazin-3-yl]phenol]: 0.122 µM; for `CC(Oc1cc(-c2ccccc2O)nnc1N)C(C)(C)C` (centres unmarked) [Example 164, 2-(6-amino-5-((3,3-dimethylbutan-2-yl)oxy)pyridazin-3-yl)phenol]: 0.143 µM; for `CN1CCC(Oc2cc(-c3ccccc3O)nnc2N)CC1` [Example 172, 2-(6-amino-5-((1-methylpiperidin-4-yl)oxy)pyridazin-3-yl)phenol]: 0.161 µM. The figure for `C[C@H](C(=O)N(C)C)n1cc(-c2cc(-c3ccccc3O)nnc2N)cn1` [Example 195, 2-(4-(3-Amino-6-(2-hvdroxyphenyl)pyridazin-4-vl)-1H-pvrazol-1-yl)-N,N-dimethylpropanamide] is 0.0217 µM; for `CC(C(=O)N(C)C)n1cnc(-c2cc(-c3ccccc3O)nnc2N)c1` (centres unmarked) [Example 197, 2-(4-(3-amino-6-(2-hydroxyphenyl)pyridazin-4-yl)-1H-imidazol-1-yl)-N,N-dimethylpropanamide] it is 0.0339 µM; for `C[C@H](C1CCN(c2cc(-c3ccccc3O)nnc2N)CC1)N(C)C` [Example 65, (R)-2-(6-amino-5-(4-(1-(dimethylamino)ethyl)piperidin-1-yl)pyridazin-3-yl)phenol] it is 0.0276 µM.

Take `C[C@@H]1CN(c2cc(-c3ccccc3O)nnc2N)CCN1Cc1nccn1C` [Example 93, (R)-2-(6-amino-5-(3-methyl-4-((1-methyl-1H-imidazol-2-yl)methyl)piperazin-1-yl)pyridazin-3-yl)phenol]: the midpoint of inhibition, the IC50, lay at 0.0238 µM. Consider `CN(C)C(=O)C1CCN(c2cc(-c3ccccc3O)nnc2N)CC1` [Example 19, 1-(3-amino-6-(2-hydroxyphenyl)pyridazin-4-yl)-N,N-dimethylpiperidine-4-carboxamide], for which half-maximal inhibition (IC50) required 0.0564 µM. Compound `CC1CN(c2cc(-c3ccccc3O)nnc2N)CCN1C(=O)c1cccnc1` (centres unmarked) [Example 135, (4-(3-amino-6-(2-hydroxyphenyl)pyridazin-4-yl)-2-methylpiperazin-1-yl)(pyridin-3-yl)methanone] showed an IC50 of 0.0446 µM. The same measure for `Nc1nnc(-c2ccccc2O)cc1N1CCC(O)(c2ccccc2)CC1` [Example 42, 1-(3-amino-6-(2-hydroxyphenyl)pyridazin-4-yl)-4-phenylpiperidin-4-ol]: 0.0113 µM. The figure for `C[C@H](Oc1cc(-c2ccccc2O)nnc1N)c1cccnc1` [Example 167, (S)-2-(6-amino-5-(1-(pyridin-3-yl)ethoxy)pyridazin-3-yl)phenol] is 0.0251 µM; for `CC(=O)N1C2CCC1CN(c1cc(-c3ccccc3O)nnc1N)C2` [Example 66, 1-(3-(3-amino-6-(2-hydroxyphenyl)pyridazin-4-yl)-3,8-diazabicyclo[3.2.1]octan-8-yl)ethan-1-one] it is 0.0713 µM. On to `C[C@H]1CN(c2cc(-c3ccccc3O)nnc2N)CCN1Cc1nccn1C` [Example 92, (S)-2-(6-amino-5-(3-methyl-4-((1-methyl-1H-imidazol-2-yl)methyl)piperazin-1-yl)pyridazin-3-yl)phenol], for which the IC50 came out at 0.0185 µM. With `C[C@@H]1CN(c2cc(-c3ccccc3O)nnc2N)CCN1C(=O)C(C)(C)O` [Example 145, (R)-1-(4-(3-amino-6-(2-hydroxyphenyl)pyridazin-4-yl)-2-methylpiperazin-1-yl)-2-hydroxy-2-methylpropan-1-one], the IC50 is 0.0642 µM.

`Nc1nnc(-c2ccccc2O)cc1N1C[C@H]2C[C@@H]1CN2c1ccccn1` [Example 74, 2-(6-amino-5-((1R,4R)-5-(pyridin-2-yl)-2,5-diazabicyclo[2.2.1]heptan-2-yl)pyridazin-3-yl)phenol]: the half-maximal inhibitory concentration (IC50) turned out to be 0.0106 µM. Compared with the last compound, the IC50 is about 6.1-fold lower. In the case of `Nc1nnc(-c2ccccc2O)cc1N1CCC(O)C1` (centres unmarked) [Example 38, 1-(3-amino-6-(2-hydroxyphenyl)pyridazin-4-yl)pyrrolidin-3-ol], the IC50 was 0.0921 µM. Against the preceding compound, the IC50 is about 8.7-fold higher. With `C[C@H]1CN(c2cc(-c3ccccc3O)nnc2N)C[C@H](C)O1` [Example 244, 2-[6-amino-5-[(2S,6S)-2,6-dimethylmorpholin-4-yl]pyridazin-3-yl]phenol], the IC50 came out at 0.0379 µM.

Compound `Nc1nnc(-c2cc(F)ccc2O)cc1-c1ccccc1` [Example 230, 2-(6-amino-5-phenylpyridazin-3-yl)-4-fluorophenol] gave an IC50 of 0.0549 µM. The IC50 values of the last two compounds are within 1.5-fold of each other. The same measure for `Nc1nnc(-c2ccccc2O)cc1N1CCN(C(=O)c2ccccc2)CC1` [Example 61, (4-(3-amino-6-(2-hydroxyphenyl)pyridazin-4-yl)piperazin-1-yl)(phenyl)methanone]: 0.0348 µM; for `C[C@@H](C(=O)N(C)C)n1cc(-c2cc(-c3ccccc3O)nnc2N)cn1` [Example 196, 2-(4-(3-Amino-6-(2-hvdroxyphenyl)pyridazin-4-vl)-1H-pvrazol-1-yl)-N,N-dimethylpropanamide]: 0.0247 µM; for `Nc1nnc(-c2ccccc2O)cc1N1CC2CCC(C1)N2c1ccc(C(=O)O)nc1` [Example 88, 5-(3-(3-amino-6-(2-hydroxyphenyl)pyridazin-4-yl)-3,8-diazabicyclo[3.2.1]octan-8-yl)picolinic acid]: 0.218 µM.
